Results: patent US8552048B2, “Phosphoramidate alkylator prodrugs for the treatment of cancer” (Threshold Pharmaceuticals, Inc., priority 2006, dated 2013)
Values joined by “and” are separate entries in the source; they are usually repeats but may differ in a detail not shown here. Equal values may be shown once. Read-outs that look alike come from different tables or passages of the source.

Assay: Pharmacokinetics in Sprague-Dawley rats (single dose i.v. and p.o.)
Assay type: in vivo, male Sprague-Dawley rats
Procedure: Pharmacokinetic studies were performed in male CD-1 (50 mg/kg i.p. or orally (p.o.)) or female nude mice (50 mg/kg i.v. or i.p.), male Sprague-Dawley rats (1, 5, 20 and 50 mg/kg i.v. and 100 mg/kg, p.o.), beagle dogs (20 mg/kg, i.v.) and cynomologus monkeys (20 mg/kg i.v.). Plasma TH302 concentrations were analyzed using a LC/MS method and the pharmacokinetic parameters computed using a noncompartmental method. Interspecies scaling was performed according to standard methods.
TH302 was dissolved in 50% PEG400/Saline to obtain a final concentration of 25 mg/mL, and then was further diluted to yield 25, 10, 2.5 and 0.5 mg/mL formulations of TH302 (pH The formulations were prepared just before dosing. The concentration of TH302 in dosing solution was confirmed by HPLC-UV. Male Sprague Dawley rats (body weight: 200 g to 230 g) were used in this study. Before the pharmacokinetic studies, animals were randomly assigned to four treatment groups cannulated in the carotid artery for serial blood sampling. All rats were administered a single intravenous bolus dose over one minute via the tail vein. The concentrations of TH302 in plasma were determined using a high performance liquid chromatography/mass spectrometry (HPLC/MS/MS) method. […]

[1] = rats, 1 mg/kg i.v. bolus, individual animals, 1 mg/kg
[2] = rats, 5 mg/kg i.v. bolus, individual animals, 5 mg/kg
[3] = rats, 20 mg/kg i.v. bolus, individual animals, 20 mg/kg
[4] = rats, 50 mg/kg i.v. bolus, individual animals, 50 mg/kg

Cn1c(COP(=O)(NCCBr)NCCBr)cnc1[N+](=O)[O-] [TH302]
half-life (male, Sprague-Dawley, rat, plasma, iv, 1 mg/kg, rats, 1 mg/kg i.v. bolus, individual animals, read-out: T1/2 (converted)): 105 min | Vd (male, Sprague-Dawley, rat, plasma, iv, 1 mg/kg, rats, 1 mg/kg i.v. bolus, individual animals, read-out: Vss): 1.83 L/kg | AUC(0-inf) (male, Sprague-Dawley, rat, plasma, iv, 5 mg/kg, rats, 5 mg/kg i.v. bolus, MEAN): 826 ng·h/mL | AUC(0-t) (male, Sprague-Dawley, rat, plasma, iv, 5 mg/kg, rats, 5 mg/kg i.v. bolus, MEAN, read-out: AUC(0-t)): 799 ng·h/mL | Cmax (male, Sprague-Dawley, rat, plasma, iv, 5 mg/kg, rats, 5 mg/kg i.v. bolus, MEAN, read-out: Cmax): 3820 ng/mL | MRT (male, Sprague-Dawley, rat, plasma, iv, 5 mg/kg, rats, 5 mg/kg i.v. bolus, MEAN, read-out: MRT): 54 min | AUC(0-inf) (male, Sprague-Dawley, rat, plasma, iv, 5 mg/kg, rats, 5 mg/kg i.v. bolus, individual animals): 732 ng·h/mL | AUC(0-t) (male, Sprague-Dawley, rat, plasma, iv, 5 mg/kg, rats, 5 mg/kg i.v. bolus, individual animals, read-out: AUC(0-t)): 730 ng·h/mL | clearance (male, Sprague-Dawley, rat, plasma, iv, 5 mg/kg, rats, 5 mg/kg i.v. bolus, individual animals, read-out: CL (converted)): 114 mL/min/kg | Cmax (male, Sprague-Dawley, rat, plasma, iv, 5 mg/kg, rats, 5 mg/kg i.v. bolus, individual animals, read-out: Cmax): 3840 ng/mL | Vd (male, Sprague-Dawley, rat, plasma, iv, 5 mg/kg, rats, 5 mg/kg i.v. bolus, individual animals, read-out: Vss): 7.68 L/kg | AUC(0-inf) (male, Sprague-Dawley, rat, plasma, iv, 20 mg/kg, rats, 20 mg/kg i.v. bolus, MEAN): 3310 ng·h/mL | AUC(0-t) (male, Sprague-Dawley, rat, plasma, iv, 20 mg/kg, rats, 20 mg/kg i.v. bolus, MEAN, read-out: AUC(0-t)): 3270 ng·h/mL | Cmax (male, Sprague-Dawley, rat, plasma, iv, 20 mg/kg, rats, 20 mg/kg i.v. bolus, MEAN, read-out: Cmax): 13500 ng/mL | MRT (male, Sprague-Dawley, rat, plasma, iv, 20 mg/kg, rats, 20 mg/kg i.v. bolus, MEAN, read-out: MRT): 35.4 min | AUC(0-inf) (male, Sprague-Dawley, rat, plasma, iv, 20 mg/kg, rats, 20 mg/kg i.v. bolus, individual animals): 2920 ng·h/mL | AUC(0-t) (male, Sprague-Dawley, rat, plasma, iv, 20 mg/kg, rats, 20 mg/kg i.v. bolus, individual animals, read-out: AUC(0-t)): 2830 ng·h/mL | clearance (male, Sprague-Dawley, rat, plasma, iv, 20 mg/kg, rats, 20 mg/kg i.v. bolus, individual animals, read-out: CL (converted)): 114 mL/min/kg | Cmax (male, Sprague-Dawley, rat, plasma, iv, 20 mg/kg, rats, 20 mg/kg i.v. bolus, individual animals, read-out: Cmax): 13400 ng/mL | Vd (male, Sprague-Dawley, rat, plasma, iv, 20 mg/kg, rats, 20 mg/kg i.v. bolus, individual animals, read-out: Vss): 2.89 L/kg | AUC(0-inf) (male, Sprague-Dawley, rat, plasma, iv, 50 mg/kg, rats, 50 mg/kg i.v. bolus, MEAN): 8470 ng·h/mL | AUC(0-t) (male, Sprague-Dawley, rat, plasma, iv, 50 mg/kg, rats, 50 mg/kg i.v. bolus, MEAN, read-out: AUC(0-t)): 8460 ng·h/mL | Cmax (male, Sprague-Dawley, rat, plasma, iv, 50 mg/kg, rats, 50 mg/kg i.v. bolus, MEAN, read-out: Cmax): 35500 ng/mL | MRT (male, Sprague-Dawley, rat, plasma, iv, 50 mg/kg, rats, 50 mg/kg i.v. bolus, MEAN, read-out: MRT): 17.4 min | AUC(0-inf) (male, Sprague-Dawley, rat, plasma, iv, 50 mg/kg, rats, 50 mg/kg i.v. bolus, individual animals): 8830 ng·h/mL | AUC(0-t) (male, Sprague-Dawley, rat, plasma, iv, 50 mg/kg, rats, 50 mg/kg i.v. bolus, individual animals, read-out: AUC(0-t)): 8830 ng·h/mL | clearance (male, Sprague-Dawley, rat, plasma, iv, 50 mg/kg, rats, 50 mg/kg i.v. bolus, individual animals, read-out: CL (converted)): 94.3 mL/min/kg | Cmax (male, Sprague-Dawley, rat, plasma, iv, 50 mg/kg, rats, 50 mg/kg i.v. bolus, individual animals, read-out: Cmax): 37200 ng/mL | MRT (male, Sprague-Dawley, rat, plasma, iv, 50 mg/kg, rats, 50 mg/kg i.v. bolus, individual animals, read-out: MRT): 17.4 min | Vd (male, Sprague-Dawley, rat, plasma, iv, 50 mg/kg, rats, 50 mg/kg i.v. bolus, individual animals, read-out: Vss): 1.63 L/kg | AUC (male, Sprague-Dawley, rat, plasma, iv, 50 mg/kg, rats, i.v. bolus, up to 8 mg/kg human equivalent daily dose, read-out: exposure of TH302, AUC): ~8500 ng·h/mL | clearance (male, Sprague-Dawley, rat, plasma, iv, rats, i.v. dose 1-50 mg/kg, range of means, read-out: Mean Cl): 78.2 to 102 mL/min/kg | Vd (male, Sprague-Dawley, rat, plasma, iv, rats, i.v. dose 1-50 mg/kg, range of means, read-out: mean Vss): 1.67 to 5.09 L/kg | half-life (male, Sprague-Dawley, rat, plasma, iv, rats, i.v. dose 1-50 mg/kg, range of means, read-out: mean terminal plasma t1/2): 79.2 to 262 min | Tmax (male, Sprague-Dawley, rat, plasma, iv, rats, 1 mg/kg i.v. bolus, individual animals): 1.8 min | Tmax (male, Sprague-Dawley, rat, plasma, iv, rats, 5 mg/kg i.v. bolus, individual animals): 1.8 min | Tmax (male, Sprague-Dawley, rat, plasma, iv, rats, 20 mg/kg i.v. bolus, individual animals): 1.8 min | Tmax (male, Sprague-Dawley, rat, plasma, iv, rats, 50 mg/kg i.v. bolus, individual animals): 1.8 min | Vβ (rats, 1 mg/kg i.v. bolus, MEAN): 13.55 L/kg | AUC(0-t) [1]: 273.70 ng·h/mL and 202.22 ng·h/mL | AUC(0-∞) [1]: 282.01 ng·h/mL and 203.34 ng·h/mL | CL [1]: 59.2 mL/min/kg | Cmax [1]: 990.12 ng/mL and 732.20 ng/mL | MRT [1]: 61.8 min | T1/2 [1]: 130 min and 131 min | Vss [1]: 2.82 L/kg | Vβ [1]: 14.19 L/kg and 11.03 L/kg and 15.45 L/kg | Vβ (rats, 5 mg/kg i.v. bolus, MEAN): 30.66 L/kg | AUC(0-t) [2]: 868.22 ng·h/mL | AUC(0-∞) [2]: 919.39 ng·h/mL | CL [2]: 90.7 mL/min/kg | Cmax [2]: 3803.81 ng/mL | MRT [2]: 27 min and 81.6 min | T1/2 [2]: 73.2 min and 377 min | Vβ [2]: 11.99 L/kg and 49.33 L/kg | Vβ (rats, 20 mg/kg i.v. bolus, MEAN): 41.04 L/kg | AUC(0-t) [3]: 3380.61 ng·h/mL and 3597.80 ng·h/mL | AUC(0-∞) [3]: 3387.13 ng·h/mL and 3618.51 ng·h/mL | CL [3]: 92.2 mL/min/kg | Cmax [3]: 12009.10 ng/mL and 15053.50 ng/mL | MRT [3]: 24.6 min and 22.2 min | T1/2 [3]: 564 min and 64.8 min and 159 min | Vss [3]: 1.68 L/kg | Vβ [3]: 92.86 L/kg and 9.16 L/kg and 21.10 L/kg | Vβ (rats, 50 mg/kg i.v. bolus, MEAN): 11.41 L/kg | AUC(0-t) [4]: 8482.72 ng·h/mL and 8083.24 ng·h/mL | AUC(0-∞) [4]: 8488.15 ng·h/mL and 8102.61 ng·h/mL | CL [4]: 98.2 mL/min/kg and 103 mL/min/kg | Cmax [4]: 37277.10 ng/mL and 32033.40 ng/mL | MRT [4]: 18 min and 15.6 min | T1/2 [4]: 46.2 min and 56.4 min and 134 min | Vss [4]: 1.68 L/kg and 1.70 L/kg | Vβ [4]: 6.28 L/kg and 7.99 L/kg and 19.94 L/kg | time of mean peak plasma concentration (rats, 100 mg/kg p.o., first sampled time point): 15 min | linearity of pharmacokinetics (rats, 1, 5, 20 and 50 mg/kg i.v.): linear pharmacokinetics
